Results taken from patent publication US6653110B2 (Ajinomoto Co., Inc., priority 2001, dated 2003).

System: Enterobacter agglomerans AJ13601 strain
Experiment: Growth inhibition by organic acid at acidic pH (main culture in jar fermenter)
Type: cell-based
Conditions: for Growth inhibition: organic acid 0.5 g/L in main culture medium, pH 4.5, 34° C.
Description: Therefore, an experiment concerning the growth inhibition by an organic acid was performed at an acidic pH.
The Enterobacter agglomerans AJ13601 strain was cultured on LBG agar medium (10 g/L of trypton, 5 g/L of yeast extract, 10 g/L of NaCl and 15 g/L of agar) containing 25 mg/L of tetracycline hydrochloride and 25 mg/L of chloramphenicol at 30° C. for 14 hours, and one platinum loop of the cells were taken and inoculated into 300 mL of a seed culture medium having the following composition in a 1 L-volume jar fermenter to perform seed culture at 34° C. at pH 6.0.
50 g/L of sucrose, 0.4 g/L of magnesium sulfate heptahydrate, 4.0 g/L of ammonium sulfate, 2.0 g/L of monopotassium dihydrogenphosphate, 4.0 g/L of yeast extract, 0.01 g/L of ferrous sulfate heptahydrate, 0.01 g/L manganese sulfate pentahydrate, 0.4 g/L of L-lysine hydrochloride, 0.4 g/L of DL-methionine, 0.4 g/L of DL-α,ε-diaminopimelic acid, 25 mg/L of tetracycline hydrochloride and 25 mg/L of chloramphenicol
pH was controlled by adding ammonia gas during the culture. The seed culture was terminated by observing depletion of the saccharide in the seed culture medium as a marker, and the seed culture broth was inoculated into 300 mL of a main culture medium contained in 1 L-volume jar fermenters in an amount of 20% of the volume of the main culture medium to perform the main culture. The composition of the main culture medium is shown below. When an experiment for the growth inhibition by an organic acid is performed, the experiment was performed by adding the organic acid at a predetermined concentration.
20 g/L of glucose, 0.4 g/L of magnesium sulfate heptahydrate, 5.0 g/L of ammonium sulfate, 6.0 g/L of monopotassium dihydrogenphosphate, 1.5 g/L of sodium chloride, 0.01 g/L of ferrous sulfate heptahydrate, 0.01 g/L of manganese sulfate pentahydrate, 0.8 g/L of L-lysine hydrochloride, 0.6 g/L of DL-methionine, 0.6 g/L of DL-α,ε-diaminopimelic acid, 25 mg/L of tetracycline hydrochloride, 25 mg/L of chloramphenicol, 6.0 g/L of yeast extract and 0.75 g/L of calcium chloride dihydrate
The culture temperature was adjusted to 34° C., and pH was controlled to a predetermined pH by adding ammonia gas.
Experiments for the growth inhibition effect at an acidic pH (pH 4.5) were first performed with various organic acids.

CC(O)C(=O)O (stereo not drawn) [Lactic acid]
Growth inhibition: Not observed | Growth inhibition (listed as lactic acid): growth rate comparable to that obtained with the control medium

O=C(O)/C=C/C(=O)O [fumaric acid]
Growth inhibition: did not show growth inhibition

O=CO [Formic acid]
growth of cells (formic acid 0.5 g/L, pH 4.5 (FIG. 11)): hardly observed | pH region in which growth inhibition by formic acid was not observed (formic acid concentration 0.5 g/L, inhibition observed at lower pH (FIG. 11)): ≥ 5.5 | Growth inhibition: Observed | Growth inhibition (listed as formic acid): evident growth inhibition | formic acid concentration in the medium at which growth inhibition was not observed (pH 4.5 (FIG. 12)): ≤ 0.20 g/L

CCC(=O)O [Propionic acid]
Growth inhibition: Observed | Growth inhibition (listed as propionic acid): evident growth inhibition

CC(=O)O [Acetic acid]
Growth inhibition: Observed | Growth inhibition (listed as acetic acid): evident growth inhibition

O=C(O)CCC(=O)O [Succinic acid]
Growth inhibition: Not observed | Growth inhibition (listed as succinic acid): did not show growth inhibition

O=C(O)CC(O)C(=O)O (stereo not drawn) [malic acid]
Growth inhibition: did not show growth inhibition
